Laboratory results: patent US20240336577A1, “PYRAZINE COMPOUND, AND METHOD OF PREPARATION AND USE THEREOF” (SHENZHEN OLIVE BIOPHARMACEUTICALS CO., LTD, priority 2020, published 2024)

Experiments:
[1] = tested on: db/db mice; assay: Glucose and lipid metabolism in db/db mice, 56 d administration; format: in vivo; details: once/d 56 d, TMP 5.0 mg/kg, mean±SEM, n=6; for Creatinine / Total cholesterol / Triglyceride / Urea: Losartan 10 mg/kg; for Creatinine / Total cholesterol / Triglyceride / Urea / Glucose determination / High-density lipoprotein cholesterol / Low-density lipoprotein cholesterol: OLB-1/OLB-2 13.32 mg/kg; for Glycated hemoglobin / Glucose determination / High-density lipoprotein cholesterol / Low-density lipoprotein cholesterol: metformin 225 mg/kg/d; for Glycated hemoglobin: OLB-1/OLB-2 13.32 mg/kg (0.037 mmol/kg)
Method: Mice of a normal control group and model mice were given normal saline 10 ml/kg/d, metformin hydrochloride enteric-coated tablets 225 mg/kg/d, Losartan 10 mg/kg, TMP (5.0 mg/kg, 0.037 mmol/kg), and OLB-1 and OLB-2 (13.32 mg/kg, 0.037 mmol/kg), at a volume of 10 mL/kg, once/d, for continuous administration of 56 d, blood lipids and blood glucose related indexes were measured after blood collection. Data were presented as mean±SEM; n=6 per group. One-way ANOVA and multiple range test were adopted to show differences between the two groups. a, p<0.05 vs. db/db group; c, p<0.001 vs. db/db group.

[2] = tested on: db/db mice; assay: Biochemical and metabolic indicators in db/db mice, 90 d administration; format: in vivo; details: once/d 90 d, Losartan 15 mg/kg/d, TMP 5.0 mg/kg, OLB-1 2.31 mg/kg, OLB-2 2.3 mg/kg, mean±SEM, n=6
[3] = tested on: ALS (SOD-G93A) transgenic mice; assay: Pole climbing test in ALS transgenic mice; format: in vivo; details: different dosages of OLB-1, OLB-2, riluzole 5 mg/kg, FIG. 6
Excerpt: The pole climbing test is generally used to evaluate a motor coordination ability and motor delay of the limbs in mice. A homemade wooden pole about 50 cm long and about 1 cm in diameter was wrapped with medical gauze to increase friction of the wooden pole. The wooden pole was put vertically on a horizontal table, the mouse tail was grabbed such that the mouse head was facing down, with limbs grabbing a top of the pole; after releasing the mouse tail, timing was started, and it was ensured that the mouse crawled downward without external force, and the time was recorded for the mouse to climb from the top of the pole to a bottom platform (a standard was that mouse hind limbs were landed on the ground). […] An average of the three pole climbing times of mice was calculated as a final pole climbing time. […] Data were presented as mean±SEM; n=10 per group. One-way ANOVA and multiple range test were adopted to show differences between the two groups. ***p<0.001 vs. WT (normal control) group; #p<0.05, ##p<0.01 vs. ALS (SOD-G93A) group.

[4] = tested on: ALS (SOD-G93A) transgenic mice; assay: Limb grip force test in ALS transgenic mice; format: in vivo; details: different dosages of OLB-1, OLB-2, riluzole 5 mg/kg, FIG. 7
Method: The limb grip force test is used directly to assess muscle strength in mice. […] After the start of administration, the grip force of the mice was tested every two weeks, and the measurement was repeated three times for each mouse, and the maximum among the three results was taken as a maximum grip force of the mice. […] Data were presented as mean±SEM; n=10 per group. One-way ANOVA and multiple range test show differences between the two groups. **p<0.01, ***p<0.001 vs. WT (normal control) group; #p<0.05, ##p<0.01 vs. ALS (SOD-G93A) group.

[5] = tested on: 6-OHDA Parkinson's disease rats; assay: APO-induced rotations in 6-OHDA Parkinson's disease rats; format: in vivo; details: APO-induced 6-OHDA rats, 2 weeks of treatment; different dosages of OLB-1, OLB-2; levodopa 25 mg/kg; FIG. 8
Excerpt: There is no rotation in a sham-operated group, and there is no significant difference between the groups injected with 6-OHDA, and there are about 180 rotations. […] Data were presented as mean±SEM; n=9-10 per group. One-way ANOVA and multiple range test were adopted to show differences between the two groups. *p<0.05, **p<0.01 vs. before 6-OHDA group.

[6] = tested on: SH—SY5Y neuroblastoma cells; assay: LPS-induced inflammatory factors and oxidative stress-related proteins, ELISA kit; format: cell-based; details: 1 μg/mL LPS 24 h, mean±SEM, n=8; for TNF-alpha: differentiated SH-SY5Y, supernatant
Method: The SH—SY5Y cells were recovered and cultured, and the cells in the logarithmic growth phase were taken. After 24 h of incubation, SH—SY5Y neuroblastoma cells were treated with 1 μM all-trans retinoic acid to induce differentiation, and then inoculated into a 6-well culture dish for 24 h of incubation. The medium was treated with chemicals feed at 0.2 μM (L) or 1 μM (H) and 1 μg/mL LPS for 24 h, a supernatant medium was aspirated, and changes of inflammatory factors and oxidative stress-related proteins were measured by an ELISA kit. Data were presented as mean±SEM; n=8 per group. One-way ANOVA and multiple range test were adopted to show differences between the two groups. a, p<0.05 vs. LPS group; b, p<0.01 vs. LPS group; c, p<0.001 vs. LPS group.

**Q.** Which results are given for `CCCCc1nc(Cl)c(CO)n1Cc1ccc(-c2ccccc2-c2nn[nH]n2)cc1` [Losartan, reference compound]?
**A.** Creatinine [1]: 42.12 ± 1.72(c) μmol/L; Total cholesterol [1]: 6.76 ± 0.46(c) mM; Triglyceride [1]: 9.68 ± 0.37(c) mg/dL; Urea [1]: 7.23 ± 0.51(c) mmol/L; Creatinine [2]: 42.12 ± 1.72(c) μmol/L; Urea [2]: 7.23 ± 0.51(c) mmol/L; Urine albumin/creatinine [2]: 522.59 ± 103.42(c) mg/g

**Q.** With `Nc1nc2ccc(OC(F)(F)F)cc2s1` [riluzole, reference compound] as the molecule, how does the “pole climbing time / symptoms of bradykinesia” value [3] read?
**A.** significantly improve the symptoms of bradykinesia

**Q.** And the limb grip force [4]?
**A.** effectively increase the limb force

**Q.** For `N[C@@H](Cc1ccc(O)c(O)c1)C(=O)O` [levodopa, reference compound], which number of rotations [5] is on record?
**A.** effectively reduce the number of rotations

**Q.** Which results are given for `CN(C)C(=N)N=C(N)N` [metformin, reference compound]?
**A.** Glycated hemoglobin [1]: 628.52 ± 50.59(c) nmol/L; Glucose determination [1]: 24.01 ± 2.38(c) mM; High-density lipoprotein cholesterol [1]: 2.19 ± 0.12(a) mM; Low-density lipoprotein cholesterol [1]: 0.59 ± 0.02(c) mM

**Q.** How did the GSH-Px ([6]; compound 0.2 μM (L)) turn out when `Cc1nc(C)c(C)nc1C` [TMP, tetramethylpyrazine, reference compound] was run?
**A.** 5.96 ± 0.74 µmol/mg

**Q.** What about the IL1 ([6]; compound 0.2 μM (L)) of the same molecule?
**A.** 13.26 ± 1.31 pg/mL

**Q.** And the IL6 ([6]; compound 0.2 μM (L))?
**A.** 14.12 ± 1.46 pg/mL

**Q.** And the MDA ([6]; compound 0.2 μM (L))?
**A.** 23.34 ± 1.71 nmol/mg

**Q.** What about the SOD ([6]; compound 0.2 μM (L)) of the same molecule?
**A.** 9.57 ± 0.61 nU/ml

**Q.** What about the GSH-Px ([6]; compound 1 μM (H)) of the same molecule?
**A.** 6.90 ± 0.87 µmol/mg

**Q.** And the IL1 ([6]; compound 1 μM (H))?
**A.** 13.53 ± 1.74 pg/mL

**Q.** And the IL6 ([6]; compound 1 μM (H))?
**A.** 12.69 ± 1.85 pg/mL

**Q.** And the MDA ([6]; compound 1 μM (H))?
**A.** 22.94 ± 1.33 nmol/mg

**Q.** And the SOD ([6]; compound 1 μM (H))?
**A.** 8.93 ± 0.47 nU/ml

**Q.** What about the TNF-alpha ([6]; compound 0.2 μM (L)) of the same molecule?
**A.** 12.22 ± 1.28 pg/mL

**Q.** What about the TNF-alpha ([6]; compound 1 μM (H)) of the same molecule?
**A.** 12.64 ± 1.70 pg/mL

**Q.** What about the Creatinine [1] of the same molecule?
**A.** 52.5 ± 3.76 µmol/L

**Q.** And the Total cholesterol [1]?
**A.** 10.96 ± 1.38 ^ mM

**Q.** And the Triglyceride [1]?
**A.** 12.83 ± 1.37 ^ mg/dL

**Q.** And the Urea [1]?
**A.** 11.55 ± 0.59 ^ mmol/L

**Q.** And the Glycated hemoglobin [1]?
**A.** 917.31 ± 57.43 ^ nmol/L

**Q.** What about the Glucose determination [1] of the same molecule?
**A.** 37.94 ± 3.11 ^ mM

**Q.** What about the High-density lipoprotein cholesterol [1] of the same molecule?
**A.** 2.49 ± 0.16 ^ mM

**Q.** And the Low-density lipoprotein cholesterol [1]?
**A.** 0.68 ± 0.04 ^ mM

**Q.** What about the Creatinine [2] of the same molecule?
**A.** 52.5 ± 3.76 µmol/L

**Q.** And the Urea [2]?
**A.** 11.55 ± 0.59 ^ mmol/L

**Q.** And the Urine albumin/creatinine [2]?
**A.** 687.35 ± 79.04 ^ mg/g
